Data from US10730875B2, “Substituted imidazo[1,2-A]pyridin-2-ylamine compounds, and pharmaceutical compositions and methods of use thereof” (JN Therapeutics, priority 2015, dated 2020).
pIC50: −log10 of the molar value.

Molecular target: JAK1 (Homo sapiens (Human), UniProt P23458)
Experiment: Cellular JAK1 assay: IL-6-mediated STAT3 phosphorylation in TF-1 cells
Assay type: cell-based
Conditions: IL-6 stimulation, STAT3 phosphorylation at Tyr705 (AlphaLISA), read-out: Inhibitory Activity Against JAK1 IC50
Description: The cellular potency of a compound on JAK1 or JAK2 inhibition is determined by measuring the cytokine-mediated phosphorylation of STAT proteins in TF-1 cells.
Human cytokines of IL-6 (R&D Systems, Cat. No. 206-IL-010/CF) and GM-CSF (R&D Systems, Cat. No. 215-GM-010/CF) are reconstituted at 10 μg/mL in D-PBS containing 0.1% BSA (Sigma, Cat. No. A8577) and human EPO (R&D Systems, Cat. No. 287-TC-500) at 500 U/mL in D-PBS containing 0.1% BSA. TF-1 cells (ATCC, CRL-2003) were grown in RPMI1640 (ATCC, Cat. No. 30-2001) supplemented with 2 ng/mL of recombinant human GM-CSF, 10% FBS (Gibco, Cat. No. 10437-028), and 100 U/mL penicillin-streptomycin (Gibco, Cat. No. 15140-122). The cells were maintained and propagated between 1×10^5 cells/mL to 7.5×10^5 cells/mL. Aliquots of the cells from early passages were preserved for liquid nitrogen storage. Frozen vials of the cells were thawed at 37° C. water bath. The cells were spun to remove freezing medium. The newly revived frozen cells were adapted in culture for 5-7 days before used for compound testing. The cells used in for compound testing were less than 20 subculture passages or 3 months in culture.
To test compounds, the TF-1 cells were harvested at a density of 3 to 7×10^5 cells/mL by centrifugation. After removing the culture medium, the resulting cell pellet was suspended and washed once by centrifugation with HBSS buffer (Gibco, Cat. No. 14025-092) containing 0.1% BSA. The cell pellet was resuspended in HBSS buffer at 7.5×10^6 cells/mL. Four micro-liters of the cells (3×10^4 cells in total) were added to each well of a white 384-well plate (Packard, Cat. No. 6005214).
The compounds were first diluted in dimethylsulfoxide (DMSO) (Sigma, Cat. No. D2650) to generate 9 3-fold diluted dosing concentrations in a 96-well polypropylene plate (Corning, Cat. No. 3365), followed by addition of HBSS buffer for another 125-fold dilution. To the cells, 2 μL of the diluted compounds were added and mixed by tapping the plate several times. The cells were incubated for 2 hrs of treatment. DMSO was used as a control and similarly diluted along and added to the cells.
To assay JAK1 inhibition, 2 μL of IL-6 diluted at 400 ng/mL (4×) in HBSS containing 0.1% BSA was added to the treated cells. The cells were then incubated for 30 min of cytokine treatment and lysed at the end by addition of 2 μL of 5×AlphaLISA SureFire Ultra lysis buffer from Perkin Elmer. The plate was agitated on a plate shaker for 10 min at room temperature. The cellular JAK1 activity was determined by measuring STAT3 phosphorylation at Tyr705 in lysates using the AlphaLISA SureFire Ultra kit (Perkin Elmer, Cat. No. ALSU-PST3-A500). A volume of 5 μL of acceptor mix and donor mix was added sequentially to lysates following the product protocol. The assay signals were recorded on EnVision plate reader (Perkin Elmer) with AlphaScreen optics setting.
The results are summarized in Table 3, where A represents a value no greater than 500 nM, B represents a value greater than 500 nM but no greater than 1 μM, C represents a value greater than 1 μM but no greater than 5 μM, and D represents a value greater than 5 μM.

Chain of JAK1 (P23458 whole entry): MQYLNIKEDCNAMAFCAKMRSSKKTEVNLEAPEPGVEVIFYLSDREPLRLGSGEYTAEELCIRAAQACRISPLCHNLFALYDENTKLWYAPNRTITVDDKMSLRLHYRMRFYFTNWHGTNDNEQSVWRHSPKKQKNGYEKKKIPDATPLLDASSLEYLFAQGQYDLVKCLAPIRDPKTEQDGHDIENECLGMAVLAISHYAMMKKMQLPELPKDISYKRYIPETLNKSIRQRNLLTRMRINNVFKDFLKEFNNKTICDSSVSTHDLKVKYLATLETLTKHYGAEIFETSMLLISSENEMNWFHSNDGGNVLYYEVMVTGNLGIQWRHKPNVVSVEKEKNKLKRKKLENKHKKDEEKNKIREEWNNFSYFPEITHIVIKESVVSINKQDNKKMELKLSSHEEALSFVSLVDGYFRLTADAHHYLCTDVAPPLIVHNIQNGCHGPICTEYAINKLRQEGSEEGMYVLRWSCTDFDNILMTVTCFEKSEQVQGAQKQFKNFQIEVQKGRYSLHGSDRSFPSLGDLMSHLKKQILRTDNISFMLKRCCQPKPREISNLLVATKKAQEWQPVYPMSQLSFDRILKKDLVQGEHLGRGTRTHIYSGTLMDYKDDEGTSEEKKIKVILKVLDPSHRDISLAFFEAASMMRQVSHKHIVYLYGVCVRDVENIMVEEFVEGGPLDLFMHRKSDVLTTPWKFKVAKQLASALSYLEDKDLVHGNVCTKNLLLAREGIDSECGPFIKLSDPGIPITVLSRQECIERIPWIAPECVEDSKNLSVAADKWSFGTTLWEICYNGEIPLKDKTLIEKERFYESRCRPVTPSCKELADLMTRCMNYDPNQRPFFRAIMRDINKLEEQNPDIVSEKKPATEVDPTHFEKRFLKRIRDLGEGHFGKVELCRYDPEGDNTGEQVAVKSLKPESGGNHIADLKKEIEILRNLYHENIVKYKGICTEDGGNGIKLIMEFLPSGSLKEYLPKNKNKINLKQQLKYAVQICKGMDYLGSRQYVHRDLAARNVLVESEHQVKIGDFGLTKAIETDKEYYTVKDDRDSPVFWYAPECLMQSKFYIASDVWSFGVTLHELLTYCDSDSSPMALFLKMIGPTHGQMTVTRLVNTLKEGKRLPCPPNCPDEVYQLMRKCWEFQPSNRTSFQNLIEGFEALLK

O=C(Nc1cn2c(-c3ccc(CN4CCS(=O)(=O)CC4)cc3F)cccc2n1)C1CC1 [Compound 14] was tested, and the pIC50 was ≥ 6.30.
